Source: ChEMBL document CHEMBL1146614, “High-affinity thrombin receptor (PAR-1) ligands: a new generation of indole-based peptide mimetic antagonists with a basic amine at the C-terminus” (Bioorg Med Chem Lett, 2003)
pIC50: −log10 of the molar value.

Assays:
[1] = Ability to block thrombin (0.15 nM)-induced platelet aggregation; type: functional
[2] = Ability to block U-46,619 (0.3 uM)-induced platelet aggregation; type: functional
[3] = target: T1, Proteinase-activated receptor 1 (Homo sapiens, UniProt P25116); assay: Ability to inhibit the binding of [3H]S-(p-F-Phe)-homoarginine-L-homoarginine-KY-NH2 to thrombin receptor on the membranes of CHRF-288-11 cells
T1 sequence (P25116 whole entry): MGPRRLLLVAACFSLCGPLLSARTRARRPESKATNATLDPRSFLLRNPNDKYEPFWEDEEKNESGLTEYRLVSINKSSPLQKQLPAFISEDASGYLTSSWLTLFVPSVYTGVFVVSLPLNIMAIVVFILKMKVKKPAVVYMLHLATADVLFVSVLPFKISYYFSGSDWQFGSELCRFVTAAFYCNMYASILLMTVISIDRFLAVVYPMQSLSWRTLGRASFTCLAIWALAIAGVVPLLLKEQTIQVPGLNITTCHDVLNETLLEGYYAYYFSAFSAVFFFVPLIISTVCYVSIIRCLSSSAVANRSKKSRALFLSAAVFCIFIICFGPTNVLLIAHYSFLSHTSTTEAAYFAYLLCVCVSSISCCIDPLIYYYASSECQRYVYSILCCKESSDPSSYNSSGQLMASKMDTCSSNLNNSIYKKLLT

[4] = Ability to block TRAP-6 (2 uM)-induced platelet aggregation; type: functional
[5] = Ability to block collagen (3 ug/mL)-induced platelet aggregation; type: functional
[6] = Ability to block U-46,619 (0.3 uM)-induced platelet aggregation; inactive at a concentration of 50 uM; type: functional

| SMILES | pIC50 [1] | pIC50 [2] | pIC50 [3] | pIC50 [4] | pIC50 [5] | IC50 [6] |
| --- | --- | --- | --- | --- | --- | --- |
| CSCC[C@H](NC(=O)[C@H](Cc1ccc(F)c(F)c1)NC(=O)Nc1ccc2c(CN3CCCC3)cn(Cc3c(Cl)cccc3Cl)c2c1)C(=O)NCCN | 6.66 | 4.62 | 7.60 | 7.15 | 5.33 |  |
| NCC[C@H](NC(=O)[C@H](Cc1ccc(F)c(F)c1)NC(=O)Nc1ccc2c(CN3CCCC3)cn(Cc3c(Cl)cccc3Cl)c2c1)C(=O)NCc1ccccc1 | 6.47 |  | 6.36 | 6.80 |  | Not Active |
| NCC[C@H](NC(=O)[C@H](Cc1ccc(F)c(F)c1)NC(=O)Nc1ccc2c(CN3CCCC3)cn(Cc3c(Cl)cccc3Cl)c2c1)C(=O)NCCN1CCCC1 | 6.34 |  |  | 7.30 |  | Not Active |
| NCCNC(=O)[C@H](Cc1ccncc1)NC(=O)[C@H](Cc1ccccc1F)NC(=O)Nc1ccc2c(CN3CCCC3)cn(Cc3c(Cl)cccc3Cl)c2c1 | 6.89 |  | 7.15 | 7.30 |  | Not Active |
| COc1ccc(CNC(=O)[C@H](CCN)NC(=O)[C@H](Cc2ccc(F)c(F)c2)NC(=O)Nc2ccc3c(CN4CCCC4)cn(Cc4c(Cl)cccc4Cl)c3c2)cc1 | 6.15 | 5.19 | 6.32 | 7.00 | 5.17 |  |
| NCC[C@H](NC(=O)[C@H](Cc1ccc(F)c(F)c1)NC(=O)Nc1cccc2c1c(CN1CCCC1)cn2Cc1c(Cl)cccc1Cl)C(=O)NCCN1CCCC1 | 4.40 |  |  | 4.80 |  | Not Active |
| NCC[C@H](NC(=O)[C@H](Cc1ccc(F)c(F)c1)NC(=O)Nc1ccc2c(CN3CCCC3)cn(Cc3c(Cl)cccc3Cl)c2c1)C(=O)NCc1ccccn1 | 5.96 | 4.70 | 6.48 | 6.72 | 5.08 |  |
| CSC[C@H](NC(=O)[C@H](Cc1ccc(F)c(F)c1)NC(=O)Nc1ccc2c(CN3CCCC3)cn(Cc3c(Cl)cccc3Cl)c2c1)C(=O)NCCN | 5.89 | 4.73 | 7.22 | 7.22 | 4.57 |  |
| NCCNC(=O)[C@H](Cc1cccs1)NC(=O)[C@H](Cc1ccc(F)c(F)c1)NC(=O)Nc1ccc2c(CN3CCCC3)cn(Cc3c(Cl)cccc3Cl)c2c1 | 6.57 |  | 7.46 | 7.10 | 4.78 | Not Active |
| NCC[C@H](NC(=O)[C@H](Cc1ccc(F)c(F)c1)NC(=O)Nc1ccc2c(CN3CCCC3)cn(Cc3c(Cl)cccc3Cl)c2c1)C(=O)NCCc1ccccn1 | 6.06 | 4.99 | 6.30 | 6.82 | 5.18 |  |
| NCC[C@H](NC(=O)[C@H](Cc1ccc(F)c(F)c1)NC(=O)Nc1cccc2c(CN3CCCC3)cn(Cc3c(Cl)cccc3Cl)c12)C(=O)NCCN1CCCC1 | 4.64 |  | 4.66 | 5.37 |  | Not Active |
| NCC[C@H](NC(=O)[C@H](Cc1ccc(F)c(F)c1)NC(=O)Nc1ccc2c(CN3CCCC3)cn(Cc3c(Cl)cccc3Cl)c2c1)C(=O)NCc1ccco1 | 6.11 |  | 6.80 | 7.15 | 5.10 | Not Active |
| NCCC[C@H](NC(=O)[C@H](Cc1ccc(F)c(F)c1)NC(=O)Nc1ccc2c(CN3CCCC3)cn(Cc3c(Cl)cccc3Cl)c2c1)C(=O)NCCN1CCCC1 | 6.60 | 4.66 | 6.51 | 7.22 | 4.80 |  |
| NCC[C@H](NC(=O)[C@H](Cc1ccc(F)c(F)c1)NC(=O)Nc1ccc2c(CN3CCCC3)cn(Cc3c(Cl)cccc3Cl)c2c1)C(=O)NCc1cccs1 | 6.10 |  | 6.64 | 6.80 | 5.15 | Not Active |
| NCCCNC(=O)[C@H](CCN)NC(=O)[C@H](Cc1ccc(Cl)cc1)NC(=O)Nc1ccc2c(CN3CCCC3)cn(Cc3c(Cl)cccc3Cl)c2c1 | 6.70 | 4.76 | 6.37 | 7.30 | 4.96 |  |
| NCC[C@H](NC(=O)[C@H](Cc1ccc(F)c(F)c1)NC(=O)Nc1ccc2c(CN3CCCC3)cn(Cc3c(Cl)cccc3Cl)c2c1)C(=O)NCCc1ccccc1 | 6.09 | 5.12 | 6.92 | 6.80 | 5.52 |  |
| CCNCCNC(=O)[C@H](CCN)NC(=O)[C@H](Cc1ccc(F)c(F)c1)NC(=O)Nc1ccc2c(CN3CCCC3)cn(Cc3c(Cl)cccc3Cl)c2c1 | 6.39 | 4.86 | 7.05 | 6.89 |  |  |
| NCCCNC(=O)[C@H](Cc1cnc[nH]1)NC(=O)[C@H](Cc1ccc(Cl)cc1)NC(=O)Nc1ccc2c(CN3CCCC3)cn(Cc3c(Cl)cccc3Cl)c2c1 | 6.39 | 4.73 | 6.89 | 7.15 | 4.52 |  |
